Literature values, collected in patent publication US6384246B1, “Process for the preparation of maltol from plants belonging to the genus Abies” (Council of Scientific & Industrial Research, priority 2001, dated 2002).

Settings: in ethylene glycol at ambient temperature

solubility of maltol in ethylene glycol: about 4%
SMILES: Cc1occc(=O)c1O [maltol, 2-methyl-3-hydroxy-4-pyrone]
